Laboratory results reported in ChEMBL document CHEMBL1799932, “Antimalarial pyrido[1,2-a]benzimidazoles” (J Med Chem, 2011).

Assays:
Rattus norvegicus [1] = test: Apparent volume of distribution in fasted Sprague-Dawley rat assessed as 1-(2-Diethylaminoethylamino)-3-[4-(trifluoromethyl)phenyl]-pyrido[1,2-a]benzimidazole-4-carbonitrile at 5 mg/kg, iv after 48 hrs by LC-MS analysis; type: ADME, organism-based; design: dose 5 mg/kg, route intravenous; conditions: in vivo
Plasmodium berghei [2] = test: Antimalarial activity against GFP-transfected Plasmodium berghei strain ANKA infected in NMRI mouse assessed as reduction in parasitemia at 50 mg/kg/day, ip administered for 4 consecutive days measured 24 hrs after last treatment by FACS analysis relative to control; type: functional; design: scale not given: the % may be the effect or the level left; conditions: route intraperitoneal
Rattus norvegicus [3] = test: Cmax in fasted Sprague-Dawley rat assessed as 1-(2-Ethylaminoethylamino)-3-[4-(trifluoromethyl)phenyl]- pyrido[1,2-a]benzimidazole-4-carbonitrile level at 5 mg/kg, iv after 48 hrs by LC-MS analysis; type: ADME, organism-based; design: dose 5 mg/kg, route intravenous; conditions: in vivo
[4] = Metabolic stability in mouse liver microsomes assessed as intrinsic clearance per mg protein after 60 mins by LC-MS analysis; type: ADME, Microsome
Plasmodium berghei [5] = test: Antimalarial activity against GFP-transfected Plasmodium berghei strain ANKA infected in NMRI mouse assessed as increase in mean survival time at 50 mg/kg, po administered as single dose (reference value: 5 days )
Rattus norvegicus [6] = test: Drug excretion in fasted Sprague-Dawley rat urine assessed as 1-(2-Ethylaminoethylamino)-3-[4-(trifluoromethyl)phenyl]- pyrido[1,2-a]benzimidazole-4-carbonitrile level at 20 mg/kg, po after 48 hrs by LC-MS analysis; type: ADME, organism-based; design: dose 20 mg/kg, route oral; conditions: in vivo
Plasmodium berghei [7] = test: Antimalarial activity against GFP-transfected Plasmodium berghei strain ANKA infected in NMRI mouse assessed as reduction in parasitemia at 50 mg/kg, po administered as single dose measured on day 5 by FACS analysis; type: functional; design: scale not given: the % may be the effect or the level left
Rattus norvegicus [8] = test: Drug excretion in fasted Sprague-Dawley rat urine assessed as 1-(2-Diethylaminoethylamino)-3-[4-(trifluoromethyl)phenyl]-pyrido[1,2-a]benzimidazole-4-carbonitrile at 20 mg/kg, po after 48 hrs by LC-MS analysis; type: ADME, organism-based; design: dose 20 mg/kg, route oral; conditions: in vivo
Plasmodium berghei [9] = test: Antimalarial activity against GFP-transfected Plasmodium berghei strain ANKA infected in NMRI mouse assessed as reduction in parasitemia at 100 mg/kg/day, po administered for 4 consecutive days measured 24 hrs after last treatment by FACS analysis relative to control; type: functional; design: scale not given: the % may be the effect or the level left
Rattus norvegicus [10] = test: Apparent half life in fasted Sprague-Dawley rat assessed as 1-(2-Diethylaminoethylamino)-3-[4-(trifluoromethyl)phenyl]-pyrido[1,2-a]benzimidazole-4-carbonitrile at 20 mg/kg, po after 48 hrs by LC-MS analysis; type: ADME, organism-based; design: dose 20 mg/kg, route oral; conditions: in vivo
Rattus norvegicus [11] = test: Cmax in fasted Sprague-Dawley rat assessed as 1-(2-Diethylaminoethylamino)-3-[4-(trifluoromethyl)phenyl]-pyrido[1,2-a]benzimidazole-4-carbonitrile at 20 mg/kg, po after 48 hrs by LC-MS analysis; type: ADME, organism-based; design: dose 20 mg/kg, route oral; conditions: in vivo
Plasma = test: Plasma protein binding in mouse assessed as 1-(2-Diethylaminoethylamino)-3-[4-(trifluoromethyl)phenyl]-pyrido[1,2-a]benzimidazole-4-carbonitrile at 5 mg/kg, iv after 48 hrs by LC-MS analysis; type: ADME, organism-based; design: dose 5 mg/kg, route intravenous; conditions: in vivo
Plasmodium berghei [12] = test: Antimalarial activity against GFP-transfected Plasmodium berghei strain ANKA infected in NMRI mouse assessed as reduction in parasitemia at 25 mg/kg, po administered as single dose measured on day 4 by FACS analysis; type: functional; design: scale not given: the % may be the effect or the level left
Rattus norvegicus [13] = test: Drug excretion in fasted Sprague-Dawley rat urine assessed as 1-(2-Diethylaminoethylamino)-3-[4-(trifluoromethyl)phenyl]-pyrido[1,2-a]benzimidazole-4-carbonitrile at 5 mg/kg, iv after 48 hrs by LC-MS analysis; type: ADME, organism-based; design: dose 5 mg/kg, route intravenous; conditions: in vivo
Plasmodium berghei [14] = test: Antimalarial activity against GFP-transfected Plasmodium berghei strain ANKA infected in NMRI mouse assessed as reduction in parasitemia at 50 mg/kg, po administered as single dose measured on day 4 by FACS analysis; type: functional; design: scale not given: the % may be the effect or the level left
Plasmodium berghei [15] = test: Antimalarial activity against GFP-transfected Plasmodium berghei strain ANKA infected in NMRI mouse assessed as reduction in parasitemia at 50 mg/kg, po administered as single dose measured on day 2 by FACS analysis; type: functional; design: scale not given: the % may be the effect or the level left
Rattus norvegicus [16] = test: Apparent half life in fasted Sprague-Dawley rat assessed as 1-(2-Diethylaminoethylamino)-3-[4-(trifluoromethyl)phenyl]-pyrido[1,2-a]benzimidazole-4-carbonitrile at 5 mg/kg, iv after 48 hrs by LC-MS analysis; type: ADME, organism-based; design: dose 5 mg/kg, route intravenous; conditions: in vivo
Rattus norvegicus [17] = test: AUC (0 to tlast) in fasted Sprague-Dawley rat assessed as 1-(2-Diethylaminoethylamino)-3-[4-(trifluoromethyl)phenyl]-pyrido[1,2-a]benzimidazole-4-carbonitrile at 20 mg/kg, po after 48 hrs by LC-MS analysis; type: ADME, organism-based, Plasma; design: time < 48 hr, dose 20 mg/kg, route oral; conditions: in vivo
Plasmodium berghei [18] = test: Antimalarial activity against GFP-transfected Plasmodium berghei strain ANKA infected in NMRI mouse assessed as reduction in parasitemia at 50 mg/kg, po administered as single dose measured on day 3 by FACS analysis; type: functional; design: scale not given: the % may be the effect or the level left
Plasmodium berghei [19] = test: Antimalarial activity against GFP-transfected Plasmodium berghei strain ANKA infected in NMRI mouse assessed as increase in median survival time at 100 mg/kg/day, po administered for 4 days measured up to 30 days post infection (reference value: 5 to 7 days); type: functional
Plasmodium berghei [20] = test: Antimalarial activity against GFP-transfected Plasmodium berghei strain ANKA infected in NMRI mouse assessed as reduction in parasitemia at 25 mg/kg, po administered as single dose measured on day 5 by FACS analysis; type: functional; design: scale not given: the % may be the effect or the level left
Rattus norvegicus [21] = test: Tmax in fasted Sprague-Dawley rat assessed as 1-(2-Ethylaminoethylamino)-3-[4-(trifluoromethyl)phenyl]- pyrido[1,2-a]benzimidazole-4-carbonitrile level at 5 mg/kg, iv after 48 hrs by LC-MS analysis; type: ADME, organism-based; design: dose 5 mg/kg, route intravenous; conditions: in vivo
Rattus norvegicus [22] = test: Cmax in fasted Sprague-Dawley rat assessed as 1-(2-Ethylaminoethylamino)-3-[4-(trifluoromethyl)phenyl]- pyrido[1,2-a]benzimidazole-4-carbonitrile level at 20 mg/kg, po after 48 hrs by LC-MS analysis; type: ADME, organism-based; design: dose 20 mg/kg, route oral; conditions: in vivo
L6 = test: Cytotoxicity at rat L6 cells after 72 hrs by microplate alamar blue assay; type: cell-based; conditions: l6
Rattus norvegicus [23] = test: AUC (0 to tlast) in fasted Sprague-Dawley rat assessed as 1-(2-Diethylaminoethylamino)-3-[4-(trifluoromethyl)phenyl]-pyrido[1,2-a]benzimidazole-4-carbonitrile at 5 mg/kg, iv after 48 hrs by LC-MS analysis; type: ADME, organism-based, Plasma; design: time < 48 hr, dose 5 mg/kg, route intravenous; conditions: in vivo
Rattus norvegicus [24] = test: Drug excretion in fasted Sprague-Dawley rat urine assessed as 1-(2-Ethylaminoethylamino)-3-[4-(trifluoromethyl)phenyl]- pyrido[1,2-a]benzimidazole-4-carbonitrile level at 5 mg/kg, iv after 48 hrs by LC-MS analysis; type: ADME, organism-based; design: dose 5 mg/kg, route intravenous; conditions: in vivo
[25] = Metabolic stability in human liver microsomes assessed as intrinsic clearance per mg protein after 60 mins by LC-MS analysis; type: ADME, Microsome
Rattus norvegicus [26] = test: Oral bioavailability in fasted Sprague-Dawley rat assessed as 1-(2-Diethylaminoethylamino)-3-[4-(trifluoromethyl)phenyl]-pyrido[1,2-a]benzimidazole-4-carbonitrile at 20 mg/kg, po after 48 hrs by LC-MS analysis; type: ADME, organism-based; conditions: in vivo
Rattus norvegicus [27] = test: Tmax in fasted Sprague-Dawley rat assessed as 1-(2-Diethylaminoethylamino)-3-[4-(trifluoromethyl)phenyl]-pyrido[1,2-a]benzimidazole-4-carbonitrile at 20 mg/kg, po after 48 hrs by LC-MS analysis; type: ADME, organism-based; design: dose 20 mg/kg, route oral; conditions: in vivo
[28] = Metabolic stability in rat liver microsomes assessed as intrinsic clearance per mg protein after 60 mins by LC-MS analysis; type: ADME, Microsome

Description for Plasmodium falciparum: Antimalarial activity against multidrug-resistant Plasmodium falciparum K1 infected in human red blood cells assessed as 3H-hypoxanthine incorporation after 48 hrs by liquid scintillation counting

CCN(CC)CCNc1cc(-c2ccc(C(F)(F)F)cc2)c(C#N)c2nc3ccccc3n12.Cl.Cl
Vz (Rattus norvegicus [1]): 18.9 L/kg
Activity (Plasmodium berghei [2]): 91.9%
Cmax (Rattus norvegicus [3]): 540 nM
microsomal CLint [4]: 71.8 µL/min/mg
MSD (Plasmodium berghei [5]): 8 days
Activity (Rattus norvegicus [6]): 0.05%
Activity (Plasmodium berghei [7]): 78.22%
Activity (Rattus norvegicus [8]): 0.05%
Activity (Plasmodium berghei [9]): 96.2%
t1/2(app) (Rattus norvegicus [10]): 6.4 h
Cmax (Rattus norvegicus [11]): 380 nM
IC50 (Plasmodium falciparum): 0.08 µM
PPB (Plasma): 97.9%
Activity (Plasmodium berghei [12]): 51.13%
Activity (Rattus norvegicus [13]): 0.39%
Activity (Plasmodium berghei [14]): 59.97%
Activity (Plasmodium berghei [15]): 5.15%
t1/2(app) (Rattus norvegicus [16]): 7.3 h
AUClast (Rattus norvegicus [17]): 290 µM·min
Activity (Plasmodium berghei [18]): 29.76%
MSD (Plasmodium berghei [19]): 16 days
Activity (Plasmodium berghei [20]): 70.33%
Tmax (Rattus norvegicus [21]): 10.7 h
Cmax (Rattus norvegicus [22]): 920 nM
IC50 (L6): 89.6 µM
AUClast (Rattus norvegicus [23]): 304 µM·min
Activity (Rattus norvegicus [24]): 0.08%
microsomal CLint [25]: 127 µL/min/mg
F (Rattus norvegicus [26]): > 22%
Tmax (Rattus norvegicus [27]): 4.13 h
microsomal CLint [28]: 69.8 µL/min/mg
